How the values were obtained:
[1] = system: Staphylococcus aureus; experiment: Antibacterial activity against Staphylococcus aureus ATCC 25923 assessed as inhibition of bacterial growth incubated for 20 hrs by broth microdilution method; format: functional
[2] = system: Bacillus subtilis; experiment: Antibacterial activity against Bacillus subtilis ATCC 23857 assessed as inhibition of bacterial growth incubated for 20 hrs by broth microdilution method; format: functional
[3] = system: Acinetobacter baumannii; experiment: Antibacterial activity against Acinetobacter baumannii ATCC 19606 assessed as inhibition of bacterial growth incubated for 20 hrs by broth microdilution method; format: functional
[4] = system: Klebsiella pneumoniae; experiment: Antibacterial activity against Klebsiella pneumoniae ATCC 700603 assessed as inhibition of bacterial growth incubated for 20 hrs by broth microdilution method; format: functional
[5] = system: Escherichia coli; experiment: Antibacterial activity against Escherichia coli ATCC 25922 assessed as inhibition of bacterial growth incubated for 20 hrs by broth microdilution method; format: functional
[6] = system: Pseudomonas aeruginosa; experiment: Antibacterial activity against Pseudomonas aeruginosa ATCC 27853 assessed as inhibition of bacterial growth incubated for 20 hrs by broth microdilution method; format: functional
[7] = system: Erythrocyte; experiment: Hemolytic activity in mouse erythrocytes assessed as 10% hemolysis incubated for 1 hr by absorbance based analysis; format: toxicity, cell-based
[8] = (§1) Cytotoxicity against HEK293T cells assessed as cell death measured after 1 hr by resazurin dye based analysis; format: toxicity, HEK-293T; settings: human, HEK293T cells
[9] = system: HEK-293T; experiment: as §1; format: toxicity; settings: human, hek-293t, 1 h
[10] = Therapeutic index, ratio of MHC10 for hemolytic activity in mouse erythrocytes preincubated with 10% mouse serum for 1 hr to MIC for Escherichia coli ATCC 25922 preincubated with 10% mouse serum for 1 hr; format: toxicity, cell-based; settings: erythrocytes
[11] = Therapeutic index, ratio of MHC10 for hemolytic activity in mouse erythrocytes preincubated with 10% mouse serum for 6 hrs to MIC for Escherichia coli ATCC 25922 preincubated with 10% mouse serum for 6 hrs; format: toxicity, cell-based; settings: erythrocytes
[12] = Therapeutic index, ratio of MHC10 for hemolytic activity in mouse erythrocytes preincubated with 10% mouse serum for 1 hr to MIC for Staphylococcus aureus ATCC 25923 preincubated with 10% mouse serum for 1 hr; format: toxicity, cell-based; settings: erythrocytes
[13] = Therapeutic index, ratio of MHC10 for hemolytic activity in mouse erythrocytes preincubated with 10% mouse serum for 6 hrs to MIC for Staphylococcus aureus ATCC 25923 preincubated with 10% mouse serum for 6 hrs; format: toxicity, cell-based; settings: erythrocytes
[14] = Acute toxicity in male BALB/c mouse assessed as animal death at 16.3 to 24.5 mg/kg, ip administered as single dose and measured after 60 mins; format: organism-based; settings: in vivo, 1 h, dose 16.3-24.5 mg/kg
[15] = Acute toxicity in male BALB/c mouse assessed as eye closure at 16.3 to 24.5 mg/kg, ip administered as single dose and measured after 60 mins; format: organism-based; settings: in vivo, 1 h, dose 16.3-24.5 mg/kg
[16] = Acute toxicity in male BALB/c mouse assessed as convulsions at 16.3 to 24.5 mg/kg, ip administered as single dose and measured after 60 mins; format: organism-based; settings: in vivo, 1 h, dose 16.3-24.5 mg/kg
[17] = Acute toxicity in male BALB/c mouse assessed as respiratory asthenia at 16.3 to 24.5 mg/kg, ip administered as single dose and measured after 60 mins; format: organism-based; settings: in vivo, 1 h, dose 16.3-24.5 mg/kg
[18] = Acute toxicity in male BALB/c mouse assessed as mortality rate at 24.5 mg/kg, ip administered as single dose and measured after 120 mins relative to control; format: organism-based; settings: in vivo, 2 h
[19] = Acute toxicity in ip dosed male BALB/c mouse administered as single dose; format: organism-based; settings: in vivo, ip
[20] = Systemic toxicity in male BALB/c mouse assessed as pathological changes in heart at 20.83 mg/kg, ip administered as single dose by H and E staining based analysis; format: organism-based; settings: in vivo
[21] = Systemic toxicity in male BALB/c mouse assessed as hemorrhage at 20.83 mg/kg, ip administered as single dose by H and E staining based analysis; format: organism-based; settings: in vivo
[22] = Systemic toxicity in male BALB/c mouse assessed as inflammatory cell infiltration at 20.83 mg/kg, ip administered as single dose by H and E staining based analysis; format: organism-based; settings: in vivo
[23] = Systemic toxicity in male BALB/c mouse assessed as severe hepatocyte necrosis at 20.83 mg/kg, ip administered as single dose by H and E staining based analysis; format: organism-based; settings: hepatocytes
[24] = Systemic toxicity in male BALB/c mouse assessed as marked alveolar cavity wrinkling at 20.83 mg/kg, ip administered as single dose by H and E staining based analysis; format: organism-based; settings: in vivo

Substance: H-WWWWWWKRRRRR-NH2
- MIC [1]: 8 µM
- MIC [2]: 8 µM
- MIC [3]: 16 µM
- MIC [4]: 32 µM
- MIC [5]: 16 µM
- MIC [6]: 16 µM
- MHC10 [7]: 29.45 µM
- CC50 at 1 h [8]: 44.9 µM

Substance: H-WWWWWWKRRRRRR-NH2
- MIC [1]: 8 µM
- MIC [2]: 8 µM
- MIC [3]: 32 µM
- MIC [4]: 16 µM
- MIC [5]: 16 µM
- MIC [6]: 32 µM
- MHC10 [7]: 34.63 µM
- CC50 at 1 h [8]: 45 µM

Substance: H-WWWWWWKRRRRRRR-NH2
- MIC [1]: 32 µM
- MIC [2]: 16 µM
- MIC [3]: 32 µM
- MIC [4]: 32 µM
- MIC [5]: 32 µM
- MIC [6]: 32 µM
- MHC10 [7]: 27.86 µM
- CC50 at 1 h [8]: 46.6 µM

Substance: POLYMYXIN B
- MHC10 [7]: > 256 µM
- CC50 [9]: > 128 µM
- TI [10]: 1
- TI [11]: 0.5
- TI [12]: 1
- TI [13]: 1
- Activity [14]: Toxic
- Activity [15]: Toxic
- Activity [16]: Toxic
- Activity [17]: Toxic
- Activity [18]: 100%
- LD50 [19]: 20.83 mg/kg
- Activity [20]: Non-Toxic
- Activity [21]: Toxic
- Activity [22]: Toxic
- Activity [23]: Toxic
- Activity [24]: Toxic
